What was measured:
[1] = system: PC-3 prostate cancer cell line; test: SRB assay cell viability, PC-3 prostate cancer cell line; assay type: cell-based, human; settings: PC-3 prostate cancer cell line, Table II prints no unit, μM printed, read-out: SRB assay: 50% inhibition of cancer cell proliferation of sample concentration (IC50) of PC-3 prostate cancer cell line
HL-60, TB = test: NCI one-dose screening, leukemia HL-60, TB; assay type: cell-based, human; settings: 10 μM
MOLT-4 = test: NCI one-dose screening, leukemia MOLT-4; assay type: cell-based, human; settings: 10 μM
SR = test: NCI one-dose screening, leukemia SR; assay type: cell-based, human; settings: 10 μM
PRMI-8226 cell line = test: NCI one-dose screening, leukemia PRMI-8226; assay type: cell-based, human; settings: 10 μM
K562cell line = test: NCI one-dose screening, leukemia K562; assay type: cell-based, human; settings: 10 μM
EKVX = test: NCI one-dose screening, non-small cell lung cancer EKVX; assay type: cell-based, human; settings: 10 μM
HOP-62 = test: NCI one-dose screening, non-small cell lung cancer HOP-62; assay type: cell-based, human; settings: 10 μM
HOP-92 = test: NCI one-dose screening, non-small cell lung cancer HOP-92; assay type: cell-based, human; settings: 10 μM
NCI-H226 = test: NCI one-dose screening, non-small cell lung cancer NCI-H226; assay type: cell-based, human; settings: 10 μM
NCI-H23 = test: NCI one-dose screening, non-small cell lung cancer NCI-H23; assay type: cell-based, human; settings: 10 μM
NCI-H460 = test: NCI one-dose screening, non-small cell lung cancer NCI-H460; assay type: cell-based, human; settings: 10 μM
NCI-H522 = test: NCI one-dose screening, non-small cell lung cancer NCI-H522; assay type: cell-based, human; settings: 10 μM
A549/ATCC = test: NCI one-dose screening, non-small cell lung cancer A549/ATCC; assay type: cell-based, human; settings: 10 μM
COLO 205 = test: NCI one-dose screening, colon cancer COLO 205; assay type: cell-based, human; settings: 10 μM
HCC-2998 = test: NCI one-dose screening, colon cancer HCC-2998; assay type: cell-based, human; settings: 10 μM
HCT-116 = test: NCI one-dose screening, colon cancer HCT-116; assay type: cell-based, human; settings: 10 μM
HCT-15 = test: NCI one-dose screening, colon cancer HCT-15; assay type: cell-based, human; settings: 10 μM
KM12 = test: NCI one-dose screening, colon cancer KM12; assay type: cell-based, human; settings: 10 μM
HT29 = test: NCI one-dose screening, colon cancer HT29; assay type: cell-based, human; settings: 10 μM
SF-268 = test: NCI one-dose screening, CNS cancer SF-268; assay type: cell-based, human; settings: 10 μM
SF-295 = test: NCI one-dose screening, CNS cancer SF-295; assay type: cell-based, human; settings: 10 μM
SF-539 = test: NCI one-dose screening, CNS cancer SF-539; assay type: cell-based, human; settings: 10 μM
SNB-19 = test: NCI one-dose screening, CNS cancer SNB-19; assay type: cell-based, human; settings: 10 μM
SNB-75 = test: NCI one-dose screening, CNS cancer SNB-75; assay type: cell-based, human; settings: 10 μM
U251 = test: NCI one-dose screening, CNS cancer U251; assay type: cell-based, human; settings: 10 μM
LOX IMVI = test: NCI one-dose screening, melanoma LOX IMVI; assay type: cell-based, human; settings: 10 μM
MALME-3M = test: NCI one-dose screening, melanoma MALME-3M; assay type: cell-based, human; settings: 10 μM
M14 = test: NCI one-dose screening, melanoma M14; assay type: cell-based, human; settings: 10 μM
UACC-62 = test: NCI one-dose screening, melanoma UACC-62; assay type: cell-based, human; settings: 10 μM
UACC-257 = test: NCI one-dose screening, melanoma UACC-257; assay type: cell-based, human; settings: 10 μM
SK-MEL-2 = test: NCI one-dose screening, melanoma SK-MEL-2; assay type: cell-based, human; settings: 10 μM
SK-MEL-28 = test: NCI one-dose screening, melanoma SK-MEL-28; assay type: cell-based, human; settings: 10 μM
SK-MEL-5 = test: NCI one-dose screening, melanoma SK-MEL-5; assay type: cell-based, human; settings: 10 μM
IGROV1 = test: NCI one-dose screening, ovarian cancer IGROV1; assay type: cell-based, human; settings: 10 μM
OVCAR-3 = test: NCI one-dose screening, ovarian cancer OVCAR-3; assay type: cell-based, human; settings: 10 μM
OVCAR-5 = test: NCI one-dose screening, ovarian cancer OVCAR-5; assay type: cell-based, human; settings: 10 μM
OVCAR-8 = test: NCI one-dose screening, ovarian cancer OVCAR-8; assay type: cell-based, human; settings: 10 μM
SK-OV-3 = test: NCI one-dose screening, ovarian cancer SK-OV-3; assay type: cell-based, human; settings: 10 μM
786-O = test: NCI one-dose screening, renal cancer 786-O; assay type: cell-based, human; settings: 10 μM
CAKI-1 = test: NCI one-dose screening, renal cancer CAKI-1; assay type: cell-based, human; settings: 10 μM
[2] = NCI one-dose screening, renal cancer A489; assay type: cell-based, human; settings: 10 μM
ACHN = test: NCI one-dose screening, renal cancer ACHN; assay type: cell-based, human; settings: 10 μM
SN12C = test: NCI one-dose screening, renal cancer SN12C; assay type: cell-based, human; settings: 10 μM
TK-10 = test: NCI one-dose screening, renal cancer TK-10; assay type: cell-based, human; settings: 10 μM
UO-31 = test: NCI one-dose screening, renal cancer UO-31; assay type: cell-based, human; settings: 10 μM
RXF, 393 = test: NCI one-dose screening, renal cancer RXF, 393; assay type: cell-based, human; settings: 10 μM
DU145 = test: NCI one-dose screening, prostate cancer DU145; assay type: cell-based, human; settings: 10 μM
PC-3 = test: NCI one-dose screening, prostate cancer PC-3; assay type: cell-based, human; settings: 10 μM
MCF7 = test: NCI one-dose screening, breast cancer MCF7; assay type: cell-based, human; settings: 10 μM
HS 578-T = test: NCI one-dose screening, breast cancer HS 578-T; assay type: cell-based, human; settings: 10 μM; Breast cancer
MDA-MB-231/ATCC = test: NCI one-dose screening, breast cancer MDA-MB-231/ATCC; assay type: cell-based, human; settings: 10 μM
MDA-MB-468 = test: NCI one-dose screening, breast cancer MDA-MB-468; assay type: cell-based, human; settings: 10 μM
NCl/ADR-RES = test: NCI one-dose screening, breast cancer NCl/ADR-RES; assay type: cell-based, human; settings: 10 μM; listed under Ovarian cancer
BT-549 = test: NCI one-dose screening, breast cancer BT-549; assay type: cell-based, human; settings: 10 μM
T-47D = test: NCI one-dose screening, breast cancer T-47D; assay type: cell-based, human; settings: 10 μM
MDA, -MB-435 = test: NCI one-dose screening, breast cancer MDA, -MB-435; assay type: cell-based, human; settings: 10 μM; listed under Melanoma
human tumor cell lines = test: NCI one-dose screening, Mean / Delta / Range of growth percent over all tested cell lines; assay type: cell-based; settings: 10 μM

## 4-(o-phenylmethyl thio)anthra[2,1-c] [1,2,5]thiadiazol-6,11-dione [C48]
[1]
  IC50: > 15 µM
HL-60, TB
  Growth Percent HL-60(TB): −79.53%
MOLT-4
  Growth Percent MOLT-4: 67.31%
SR
  Growth Percent SR: 23.00%
PRMI-8226 cell line
  Growth Percent RPMI-8226: 48.56%
K562cell line
  Growth Percent K562: 32.30%
EKVX
  Growth Percent EKVX: 104.56%
HOP-62
  Growth Percent HOP-62: 59.51%
HOP-92
  Growth Percent HOP-92: 89.91%
NCI-H226
  Growth Percent NCI-H226: 95.71%
NCI-H23
  Growth Percent NCI-H23: 53.21%
NCI-H460
  Growth Percent NCI-H460: 88.86%
NCI-H522
  Growth Percent NCI-H522: 74.81%
A549/ATCC
  Growth Percent A549/ATCC: 104.68%
COLO 205
  Growth Percent COLO 205: 99.23%
HCC-2998
  Growth Percent HCC-2998: 124.00%
HCT-116
  Growth Percent HCT-116: 92.15%
HCT-15
  Growth Percent HCT-15: 38.57%
KM12
  Growth Percent KM12: 103.11%
HT29
  Growth Percent HT29: 104.31%
SF-268
  Growth Percent SF-268: 74.73%
SF-295
  Growth Percent SF-295: 104.92%
SF-539
  Growth Percent SF-539: 78.04%
SNB-19
  Growth Percent SNB-19: 103.54%
SNB-75
  Growth Percent SNB-75: 76.30%
U251
  Growth Percent U251: 62.36%
LOX IMVI
  Growth Percent LOX IMVI: 30.01%
MALME-3M
  Growth Percent MALME-3M: 96.77%
M14
  Growth Percent M14: 94.25%
UACC-62
  Growth Percent UACC-62: 90.69%
UACC-257
  Growth Percent UACC-257: 87.32%
SK-MEL-2
  Growth Percent SK-MEL-2: 73.29%
SK-MEL-28
  Growth Percent SK-MEL-28: 105.73%
SK-MEL-5
  Growth Percent SK-MEL-5: 87.54%
IGROV1
  Growth Percent IGROV1: 80.06%
OVCAR-3
  Growth Percent OVCAR-3: 5.30%
OVCAR-5
  Growth Percent OVCAR-5: 126.28%
OVCAR-8
  Growth Percent OVCAR-8: 76.29%
SK-OV-3
  Growth Percent SK-OV-3: 93.79%
786-O
  Growth Percent 786-0: 100.36%
CAKI-1
  Growth Percent CAKI-1: 81.47%
[2]
  Growth Percent A498: 85.54%
ACHN
  Growth Percent ACHN: 89.76%
SN12C
  Growth Percent SN12C: 85.97%
TK-10
  Growth Percent TK-10: 122.97%
UO-31
  Growth Percent UO-31: 62.14%
RXF, 393
  Growth Percent RXF 393: 95.88%
DU145
  Growth Percent DU145: 101.53%
PC-3
  Growth Percent PC-3: 73.26%
MCF7
  Growth Percent MCF7: 66.12%
HS 578-T
  Growth Percent HS 578T: 83.69%
MDA-MB-231/ATCC
  Growth Percent MDA-MB-231/ATCC: 60.72%
MDA-MB-468
  Growth Percent MDA-MB-468: 53.68%
NCl/ADR-RES
  Growth Percent NCI/ADR-RES: 59.53%
BT-549
  Growth Percent BT-549: 95.35%
T-47D
  Growth Percent T-47D: 51.89%
MDA, -MB-435
  Growth Percent MDA-MB-435: 80.61%
Human tumor cell lines; delta over all cell lines
  Growth Percent Delta: 75.31%
Human tumor cell lines; mean over all cell lines
  Growth Percent Mean: 80.61%
Human tumor cell lines; range over all cell lines
  Growth Percent Range: 120.98%

— patent US8877748B2, “Heterocyclic fused anthraquinone derivatives, manufacturing method and pharmaceutical composition using thereof” (National Defense Medical Center, priority 2012, dated 2014)
